The source made the active and inactive calls. No cut-off for these calls is given here. Where a SMILES comes first, the peptide text is derived from it.
How the values were obtained:
[1] = Hemolytic activity in human RBC assessed as disruption of membrane integrity by Alexa Fluor-Annexin V staining based analysis; type: toxicity, cell-based; conditions: erythrocyte
Escherichia coli [2] = test: Bactericidal activity against Escherichia coli ATCC 25922 incubated for 16 to 18 hrs; type: functional; conditions: time 16-18 hrs
Escherichia coli [3] = test: Induction of resistance development in Escherichia coli ATCC 25922 assessed as fold increase in MIC at sub-MIC measured after 30 passages relative to control; type: functional
[4] = Toxicity in BALB/c mouse infected with Mycobacterium bovis BCG assessed as animal survival at 2.5 to 5 mg/kg, iv administered once a day for 2 weeks; type: organism-based; conditions: in vivo, 336 h, dose 2.5-5 mg/kg
Staphylococcus aureus [5] = test: Bactericidal activity against Staphylococcus aureus ATCC 25923 incubated for 16 to 18 hrs; type: functional; conditions: time 16-18 hrs
Staphylococcus aureus [6] = test: Bactericidal activity against Staphylococcus aureus ATCC 25923 at MIC incubated for 45 mins by time kill assay; type: functional, organism-based
Escherichia coli [7] = test: Induction of resistance development in Escherichia coli ATCC 25922 assessed as fold increase in MIC at sub-MIC measured after 25 passages relative to control; type: functional
Staphylococcus aureus [8] = test: Induction of resistance development in Staphylococcus aureus ATCC 25923 assessed as fold increase in MIC at sub-MIC measured after 30 passages relative to control; type: functional
Staphylococcus aureus [9] = test: Induction of resistance development in methicillin-resistant Staphylococcus aureus BAA-44 assessed as fold increase in MIC at sub-MIC measured after 30 passages relative to control; type: functional
[10] = Toxicity in mouse assessed as animal survival at 15 mg/kg, iv administered each day for 5 days measured after 7 days post-last dose; type: organism-based; conditions: in vivo, 120 h, time 5 day
[11] = system: Mycolicibacterium smegmatis; test: Antimycobacterial activity against Mycobacterium smegmatis assessed as reduction in bacterial growth at 2 times MIC pretreated for 1 hr followed by compound removal and subsequent culturing in fresh media without compound for 24 hrs measured after 4 days; type: functional, organism-based
Escherichia coli [12] = test: Induction of cell membrane damage in Escherichia coli ATCC 25922 at 3 times MIC incubated for 60 mins by SEM analysis; type: functional, organism-based
Bacillus subtilis = test: Antibacterial activity against Bacillus subtilis 6633 incubated for 16 to 18 hrs by broth dilution assay; type: functional; conditions: time 16-18 hrs
Escherichia coli [13] = test: Bactericidal activity against Escherichia coli ATCC 25922 at MIC incubated for 30 mins by time kill assay; type: functional, organism-based
Staphylococcus aureus [14] = test: Induction of cell membrane damage in Staphylococcus aureus ATCC 25923 at 3 times MIC incubated for 60 mins by SEM analysis; type: functional, organism-based
Escherichia coli [15] = test: Antibacterial activity against Escherichia coli ATCC 25922 incubated for 16 to 18 hrs by broth dilution assay; type: functional; conditions: time 16-18 hrs
Staphylococcus aureus [16] = test: Induction of resistance development in Staphylococcus aureus ATCC 25923 assessed as fold increase in MIC at sub-MIC measured after 25 passages relative to control; type: functional
[17] = system: Mycolicibacterium smegmatis; test: Disruption of cell membrane integrity in Mycobacterium smegmatis incubated for 2 hrs by EtBr uptake assay; type: functional, organism-based
Staphylococcus aureus [18] = test: Antibacterial activity against methicillin-resistant Staphylococcus aureus BAA-44 incubated for 16 to 18 hrs by broth dilution assay; type: functional; conditions: time 16-18 hrs
[19] = Cytotoxicity against mouse 3T3-L1 cells assessed as cell viability at 100 uM incubated for 24 hrs by MTT assay relative to control; type: toxicity, cell-based; conditions: 3T3-L1 cells, read-out: Activity
Staphylococcus aureus [20] = test: Disruption of membrane integrity in Staphylococcus aureus ATCC 25923 by PI staining based analysis; type: functional, organism-based
[21] = Toxicity in mouse assessed as change in serum ALT level at 15 mg/kg, iv administered each day for 5 days measured after 7 days post-last dose; type: organism-based; conditions: in vivo, 120 h, time 5 day
Escherichia coli [22] = test: Bactericidal activity against Escherichia coli ATCC 25922 at MIC incubated for 45 mins by time kill assay; type: functional, organism-based
Escherichia coli [23] = test: Disruption of plasma membrane integrity in Escherichia coli ATCC 25922 by SYTOX-Green uptake assay; type: functional, organism-based
Staphylococcus aureus [24] = test: Antibacterial activity against Staphylococcus aureus ATCC 25923 incubated for 16 to 18 hrs by broth dilution assay; type: functional; conditions: time 16-18 hrs
Staphylococcus aureus [25] = test: Induction of resistance development in methicillin-resistant Staphylococcus aureus 33591 assessed as fold increase in MIC at sub-MIC measured after 30 passages relative to control; type: functional
[26] = Cytotoxicity against rat L6 cells assessed as cell viability at 100 uM incubated for 24 hrs by MTT assay relative to control; type: toxicity, cell-based; conditions: L6 cells, read-out: Activity
[27] = Retention time of compound by RP-HPLC method; type: physicochemical
Escherichia coli [28] = test: Disruption of membrane integrity in Escherichia coli ATCC 25922 by PI staining based analysis; type: functional, organism-based
[29] = Toxicity in mouse assessed as change in serum AST level at 15 mg/kg, iv administered each day for 5 days measured after 7 days post-last dose; type: organism-based; conditions: in vivo, 120 h, time 5 day
Staphylococcus aureus [30] = test: Antibacterial activity against Staphylococcus aureus ATCC 25923 incubated for 16 to 18 hrs in presence of 10 percent human serum by broth dilution assay; type: functional; conditions: time 16-18 hrs
Escherichia coli [31] = test: Induction of membrane depolarization in Escherichia coli ATCC 25922 by diSC3-5 dye based analysis; type: functional, organism-based
Staphylococcus aureus [32] = test: Disruption of plasma membrane integrity in Staphylococcus aureus ATCC 25923 by SYTOX-Green uptake assay; type: functional, organism-based
[33] = system: Mycolicibacterium smegmatis; test: Antitubercular activity against Mycobacterium smegmatis incubated for 24 hrs by rezasurin dye based assay; type: functional
Staphylococcus aureus [34] = test: Bactericidal activity against Staphylococcus aureus ATCC 25923 at MIC incubated for 30 mins by time kill assay; type: functional, organism-based
Staphylococcus aureus [35] = test: Induction of membrane depolarization in Staphylococcus aureus ATCC 25923 by diSC3-5 dye based analysis; type: functional, organism-based
Staphylococcus aureus [36] = test: Antibacterial activity against methicillin-resistant Staphylococcus aureus 33591 incubated for 16 to 18 hrs by broth dilution assay; type: functional; conditions: time 16-18 hrs
[37] = Hemolytic activity in human RBC measured after 40 mins by absorbance based assay; type: toxicity, cell-based, Erythrocyte; conditions: human red blood cells
Escherichia coli [38] = test: Antibacterial activity against Escherichia coli ATCC 25922 incubated for 16 to 18 hrs in presence of 10 percent human serum by broth dilution assay; type: functional; conditions: time 16-18 hrs
Klebsiella pneumoniae = test: Antibacterial activity against Klebsiella pneumoniae ATCC 27736 incubated for 16 to 18 hrs by broth dilution assay; type: functional; conditions: time 16-18 hrs
Pseudomonas aeruginosa = test: Antibacterial activity against Pseudomonas aeruginosa ATCC BAA-427 incubated for 16 to 18 hrs by broth dilution assay; type: functional; conditions: time 16-18 hrs
[39] = Drug localization in cytoplasm of Escherichia coli ATCC 25922 at 3 times MIC by confocal microscopy; type: ADME, subcellular

For H-VLGRVLGRVLGRVLGR-OH, the Activity [1] was “Non-toxic”, the MBC (Escherichia coli [2]) was 3.6 µM and the “fold change (FC)” value (Escherichia coli [3]) was 4. For the same compound, the Activity [4] was “Non-toxic”, the MBC (Staphylococcus aureus [5]) was 3.6 µM and the Activity (Staphylococcus aureus [6]) was “Active”. For the same compound, the “fold change (FC)” value (Escherichia coli [7]) was 2, the “fold change (FC)” value (Staphylococcus aureus [8]) was 4 and the “fold change (FC)” value (Staphylococcus aureus [9]) was 4. The Activity [10] was “Non-toxic”, the Activity [11] was “Active” and the Activity (Escherichia coli [12]) was “Active”. For the same compound, the MIC (Bacillus subtilis) was 3.6 µM, the Activity (Escherichia coli [13]) was “Active; Emerged As Swiftest Molecule” and the Activity (Staphylococcus aureus [14]) was “Active”. The MIC (Escherichia coli [15]) was 1.8 µM, the “fold change (FC)” value (Staphylococcus aureus [16]) was 2 and the Activity [17] was “inactive”. The MIC (Staphylococcus aureus [18]) was 3.6 µM, the viability at 24 h, 100 µM [19] was 75% and the Activity (Staphylococcus aureus [20]) was “Active”. For the same compound, the Activity [21] was “Non-toxic”, the Activity (Escherichia coli [22]) was “Active” and the Activity (Escherichia coli [23]) was “Active”. The MIC (Staphylococcus aureus [24]) was 3.6 µM, the “fold change (FC)” value (Staphylococcus aureus [25]) was 4 and the viability at 24 h, 100 µM [26] was 75%. For the same compound, the Retention_time [27] was 20.54 min, the Activity (Escherichia coli [28]) was “Active” and the Activity [29] was “Non-toxic”. For the same compound, the MIC (Staphylococcus aureus [30]) was 14.4 µM, the Activity (Escherichia coli [31]) was “Active” and the Activity (Staphylococcus aureus [32]) was “Active”. For the same compound, the MIC [33] was 2.5 µM, the Activity (Staphylococcus aureus [34]) was “Active; Emerged As Swiftest Molecule” and the Activity (Staphylococcus aureus [35]) was “Active”. For the same compound, the MIC (Staphylococcus aureus [36]) was 7.3 µM, the HC50 at 40 min [37] was 2 mM and the MIC (Escherichia coli [38]) was 14.4 µM. It also gave an MIC (Klebsiella pneumoniae) of 3.6 µM and an MIC (Pseudomonas aeruginosa) of 7.3 µM.
In the case of CC(C)C[C@H](NC(=O)[C@H](CCCNC(=N)N)NC(=O)CNC(=O)[C@H](CC(C)C)NC(=O)[C@H](CCCNC(=N)N)NC(=O)CNC(=O)[C@H](CC(C)C)NC(=O)[C@H](CCCNC(=N)N)NC(=O)CNC(=O)[C@H](CC(C)C)NC(=O)[C@H](CCCNC(=N)N)NC(=O)CNC(=O)[C@H](CC(C)C)NC(=O)[C@H](CCCNC(=N)N)NC(=O)CNC(=O)c1cc(C(=O)O)ccc1-c1c2ccc(=[N+](C)C)cc-2oc2cc(N(C)C)ccc12)C(=O)O.[Cl-] (HELM PEPTIDE1{[CN(C)c1ccc2c(-c3ccc(C(=O)O)cc3C(=O)[*:2])c3ccc(=[N+](C)C)cc-3oc2c1].G.R.L.G.R.L.G.R.L.G.R.L.G.R.L}$$$$V2.0), the Drug uptake [39] is reported as “Active”.
